Laboratory results from patent publication US12492173B2, “Herbicidal substituted N-tetrazolyl aryl carboxamides” (Bayer Aktiengesellschaft, priority 2019, dated 2025).

Columns and labels:
Assay type in all cases: in vivo
Hordeum murinum [1] = test: Post-emergence herbicidal action, HORMU; design: key: % herbicidal action: 100 = plants died, 0 = like control; conditions: Dosage 80 g/ha
Outline: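 Greenhouse post-emergence test: weeds sown in sandy loam were sprayed once at one leaf, 2 to 3 weeks from sowing, with aqueous WP or EC preparations carrying 0.2% wetting agent. Effect is scored visually after about 3 weeks.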

Alopecurus myosuroides = test: Pre-emergence herbicidal action, ALOMY; design: key: % activity: 100 = plants have died, 0 = like control plants; conditions: comparative experiment, 20 g of a.i./ha
Outline: (§1)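 Seeds were covered with sandy loam soil, then received a pre-emergence surface spray of the WP- or EC-formulated compound. After 3 weeks under good greenhouse growth conditions, damage was scored visually in percent.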

Lolium rigidum = test: Pre-emergence herbicidal action, LOLRI; conditions: dosage 320 g/ha, scored visually after 3 weeks vs untreated controls (100% = plants have died)
Excerpt: 1. Pre-Emergence Herbicidal Action Against Harmful Plants Seeds of monocotyledonous and dicotyledonous weed plants and crop plants are laid out in sandy loam soil in wood-fiber pots and covered with soil. The compounds of the invention, formulated in the form of wettable powders (WP) or as emulsion concentrates (EC), are then applied to the surface of the covering soil in the form of an aqueous suspension or emulsion at a water application rate equating to 600 to 800 l/ha, with addition of 0.2% wetting agent. After the treatment, the pots are placed in a greenhouse and kept under good growth conditions for the trial plants. The damage to the test plants is scored visually after a test period of 3 weeks by comparison with untreated controls (herbicidal activity in percent (%): 100% activity=the plants have died, 0% activity=like control plants). […] The tables below illustrate, in an exemplary manner, the […] herbicidal action of the compounds according to the invention, the herbicidal activity being stated in percent. [table] In the experiments that follow, herbicidal action of numerous inventive compounds and the known compounds that are structurally closest from D1 (WO 2012/028579 A1) and D2 (WO 2018/202535 A1) were compared under the above-specified conditions by the pre-emergence and post-emergence method. The example numbers given in the tables relate to the compounds disclosed in the respective documents. In addition to the compounds disclosed in D1 and D2, the following compounds V-1 to V-14 that are encompassed by D1 or D2 but are not compounds specified therein were used in the comparative experiments: • V-1: 2-(methylsulfanyl)-3-(methylsulfinyl)-N-(1-methyl-1H-tetrazol-5-yl)-4-(trifluoromethyl)benzamide • V-2: 2-(methylsulfanyl)-3-(methylsulfonyl)-N-(1-methyl-1H-tetrazol-5-yl)-4-(trifluoromethyl)benzamide • V-3: 2,3-bis(ethylsulfanyl)-N-(1-methyl-1H-tetrazol-5-yl)-4-(trifluoromethyl)benzamide • V-4: 2-chloro-3-(ethylsulfanyl)-N-(1-methyl-1H-tetrazol-5-yl)-4-(trifluoromethyl)benzamide • V-5: 2-chloro-4-iodo-3-(methylsulfanyl)-N-(1-methyl-1H-tetrazol-5-yl)benzamide • V-6: 2-chloro-4-iodo-3-(methylsulfinyl)-N-(1-methyl-1H-tetrazol-5-yl)benzamide • V-7: 2-chloro-4-iodo-3-(methylsulfonyl)-N-(1-methyl-1H-tetrazol-5-yl)benzamide • V-8: 2-bromo-3-(methylsulfanyl)-N-(1-methyl-1H-tetrazol-5-yl)-4-(trifluoromethyl)benzamide • V-9: 2-bromo-3-(methylsulfinyl)-N-(1-methyl-1H-tetrazol-5-yl)-4-(trifluoromethyl)benzamide • V-10: 2-bromo-3-(methylsulfonyl)-N-(1-methyl-1H-tetrazol-5-yl)-4-(trifluoromethyl)benzamide • V-11: 2-bromo-3-(ethylsulfanyl)-N-(1-methyl-1H-tetrazol-5-yl)-4-(trifluoromethyl)benzamide • V-12: 2-bromo-3-(ethylsulfinyl)-N-(1-methyl-1H-tetrazol-5-yl)-4-(trifluoromethyl)benzamide • V-13: 2-bromo-3-(ethylsulfonyl)-N-(1-methyl-1-1H-tetrazol-5-yl)-4-(trifluoromethyl)benzamide • V-14: 2-cyclopropyl-3-(ethylsulfanyl)-N-(1-methyl-1H-tetrazol-5-yl)-4-(trifluoromethyl)benzamide Herbicidal Pre-Emergence Action: […]

Hordeum murinum [2] = test: Pre-emergence herbicidal action, HORMU; conditions: dosage 320 g/ha, scored visually after 3 weeks vs untreated controls (100% = plants have died)
Outline: as §1

Row | SMILES | herbicidal action HORMU (Hordeum murinum [1]) | Herbicidal action against ALOMY (Alopecurus myosuroides) | herbicidal activity LOLRI (Lolium rigidum) [%] | herbicidal activity HORMU (Hordeum murinum [2]) [%]
1 | CCn1nnnc1NC(=O)c1ccc(C(F)(F)F)c(CS(C)(=O)=O)c1SC [Example 2-163] | 80 | – | – | –
2 | Cn1nnnc1NC(=O)c1ccc(C(F)(F)F)c(C[S+](C)[O-])c1Br (stereo not shown) [Example 1-381] | – | 50 | – | –
3 | Cn1nnnc1NC(=O)c1ccc(C(F)(F)F)c(CS(C)(=O)=O)c1Br [Example 1-382, 2-bromo-3-[(methylsulfonyl)methyl]-N-(1-methyl-1H-tetrazol-5-yl)-4-(trifluoromethyl)benzamide] | – | 30 | – | –
4 | CCCn1nnnc1NC(=O)c1ccc(C(F)F)c(C[S+]([O-])CC)c1Cl (stereo not shown) [Example 3-324] | 80 | – | 100 | 100
5 | C=CCSCc1c(C(F)(F)F)ccc(C(=O)Nc2nnnn2C)c1Cl [Example 1-308] | – | – | 90 | –
